Assay results from ChEMBL document CHEMBL4359861, “Design, synthesis and anti-inflammatory evaluation of 3-amide benzoic acid derivatives as novel P2Y14 receptor antagonists” (Eur J Med Chem, 2019).
Converted amounts (≈) assume the structure as drawn. The source made the active and inactive calls. The calls are words filed in the database; no cut-off is given here.

Assays:
[1] = biological target: T1, P2Y purinoceptor 14 (Homo sapiens, UniProt Q15391); assay: Antagonist activity at human P2Y14R stably expressed in human forskolin treated THP1 cells assessed as reduction in P2Y14R agonist UDPG-induced inhibition of cAMP production incubated for 15 mins by competitive enzyme-linked immunoassay; type: functional, cell-based
T1 sequence (Q15391 whole entry): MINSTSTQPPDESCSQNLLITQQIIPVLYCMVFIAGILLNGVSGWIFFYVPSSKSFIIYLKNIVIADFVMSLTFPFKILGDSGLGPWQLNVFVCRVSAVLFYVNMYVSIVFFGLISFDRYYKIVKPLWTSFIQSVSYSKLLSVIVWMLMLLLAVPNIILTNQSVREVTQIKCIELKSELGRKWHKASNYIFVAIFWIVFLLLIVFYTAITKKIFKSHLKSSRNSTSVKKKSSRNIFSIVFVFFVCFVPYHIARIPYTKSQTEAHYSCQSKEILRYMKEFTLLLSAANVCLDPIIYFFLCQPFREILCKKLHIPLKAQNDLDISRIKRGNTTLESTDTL

[2] = tested on: THP-1; assay: Inhibition of inflammasome in human THP1 cells assessed as reversal of MSU-induced increase in caspase1 p20 protein level at 10 uM pretreated for 1 hr followed by MSU treatment and measured after 12 hrs by Western blot analysis; type: functional, cell-based
[3] = tested on: THP-1; assay: Inhibition of pyroptosis in human THP1 cells assessed as inhibition of MSU-induced increase in caspase1 level at 10 uM pretreated for 1 hr followed by MSU treatment and measured after 12 hrs by PI staining based flow cytometric analysis; type: functional, cell-based
[4] = Solubility of compound in pH 7.4 PBS buffer vortex for 1 min followed by 10 mins sonication and further incubated for overnight under shaking condition by UV-vis absorption spectrometric method; type: physicochemical
[5] = tested on: THP-1; assay: Inhibition of pyroptosis in human THP1 cells assessed as inhibition of MSU-induced increase in IL-1beta level at 10 uM by ELISA; type: functional, cell-based
[6] = tested on: THP-1; assay: Inhibition of inflammasome in human THP1 cells assessed as reversal of MSU-induced co-localization of NLRP3 at 10 uM pretreated for 1 hr followed by MSU treatment and measured after 12 hrs by DAPI staining based confocal laser scanning microscopic method; type: functional, cell-based
[7] = tested on: THP-1; assay: Inhibition of inflammasome in human THP1 cells assessed as reversal of MSU-induced increase in ASC protein level at 10 uM pretreated for 1 hr followed by MSU treatment and measured after 12 hrs by Western blot analysis; type: functional, cell-based
[8] = tested on: THP-1; assay: Inhibition of inflammasome in human THP1 cells assessed as reversal of MSU-induced increase in NLRP3 protein level at 10 uM pretreated for 1 hr followed by MSU treatment and measured after 12 hrs by Western blot analysis; type: functional, cell-based
[9] = tested on: THP-1; assay: Inhibition of inflammasome in human THP1 cells assessed as reversal of MSU-induced increase in caspase1 p20 protein level at 5 to 20 uM pretreated for 1 hr followed by MSU treatment and measured after 12 hrs by Western blot analysis; type: functional, cell-based
[10] = biological target: T2, P2Y purinoceptor 14 (Homo sapiens) (UniProt Q15391); assay: Inhibition of P2Y14 in human THP1 cells assessed as reversal of MSU-induced reduction in cAMP production at 5 to 20 uM pretreated for 1 hr followed by MSU treatment and measured after 12 hrs by ELISA; type: functional, cell-based
T2 sequence (whole entry): T1 sequence (Q15391 whole entry)

[11] = tested on: THP-1; assay: Inhibition of pyroptosis in human THP1 cells assessed as inhibition of MSU-induced increase in IL-1beta level at 5 to 20 uM by ELISA; type: functional, cell-based
[12] = tested on: THP-1; assay: Inhibition of inflammasome in human THP1 cells assessed as reversal of MSU-induced increase in NLRP3 protein level at 5 to 20 uM pretreated for 1 hr followed by MSU treatment and measured after 12 hrs by Western blot analysis; type: functional, cell-based
[13] = tested on: THP-1; assay: Inhibition of pyroptosis in human THP1 cells assessed as inhibition of MSU-induced increase in caspase1 level at 5 to 20 uM pretreated for 1 hr followed by MSU treatment and measured after 12 hrs by PI staining based flow cytometric analysis; type: functional, cell-based
[14] = tested on: THP-1; assay: Inhibition of inflammasome in human THP1 cells assessed as reversal of MSU-induced co-localization of NLRP3 at 5 to 20 uM pretreated for 1 hr followed by MSU treatment and measured after 12 hrs by DAPI staining based confocal laser scanning microscopic method; type: functional, cell-based
[15] = Microsomal stability in rat liver microsomes assessed as parent compound remaining at 20 uM measured for 10 to 120 mins in presence of NADPH by LC-MS/MS analysis; type: ADME, Microsome
[16] = Microsomal stability in human liver microsomes assessed as parent compound remaining at 20 uM measured for 10 to 120 mins in presence of NADPH by LC-MS/MS analysis; type: ADME, Microsome
[17] = tested on: THP-1; assay: Inhibition of inflammasome in human THP1 cells assessed as reversal of MSU-induced increase in ASC protein level at 5 to 20 uM pretreated for 1 hr followed by MSU treatment and measured after 12 hrs by Western blot analysis; type: functional, cell-based
[18] = Ratio of solubility for test compound to solubility for PPTN; type: physicochemical

SMILES: O=C(O)c1cc(NC(=O)c2ccccc2)cc(-c2ccc(C3CCNCC3)cc2)c1
- IC50 [1]: 4.95 nM

SMILES: O=C(O)c1cc(-c2ccc(C3CCNCC3)cc2)c2ccc(-c3ccc(C(F)(F)F)cc3)cc2c1 [PPTN]
- inhibition [2]: Active
- inhibition [3]: Active
- solubility thermodynamic [4]: < 5 µg/mL
- inhibition [5]: Active
- inhibition [6]: Active
- inhibition [7]: Active
- inhibition [8]: Active

SMILES: O=C(O)c1cc(NC(=O)c2cnccn2)cc(-c2ccc(C3CCNCC3)cc2)c1
- IC50 [1]: 4.35 nM

SMILES: N#Cc1ccc(C(=O)Nc2cc(C(=O)O)cc(-c3ccc(C4CCNCC4)cc3)c2)cc1
- IC50 [1]: 4.54 nM

SMILES: O=C(O)c1cc(NC(=O)c2ccncc2)cc(-c2ccc(C3CCNCC3)cc2)c1
- IC50 [1]: 3.17 nM

SMILES: Cc1ccc(C(=O)Nc2cc(C(=O)O)cc(-c3ccc(C4CCNCC4)cc3)c2)cc1
- inhibition [9]: Active
- inhibition [10]: Active
- solubility thermodynamic [4]: 572 µg/mL (≈ 1380 µM)
- inhibition [11]: Active
- inhibition [12]: Active
- IC50 [1]: 1.77 nM
- inhibition [13]: Active
- inhibition [14]: Active
- half-life at 20 µM [15]: > 1 h
- half-life at 20 µM [16]: > 1 h
- inhibition [17]: Active
- Ratio [18]: > 100

SMILES: O=C(O)c1cc(NC(=O)c2ccc([N+](=O)[O-])cc2)cc(-c2ccc(C3CCNCC3)cc2)c1
- IC50 [1]: 5.06 nM
